Laboratory results as given in publication PMC11676667, “Pharmacokinetics of Oral Cannabinoid Δ8-Tetrahydrocannabivarin and Its Main Metabolites in Healthy Participants” (Pharmaceuticals, 2024).
Read-outs that look alike come from different tables or passages of the source.

Assay: Plasma pharmacokinetics after single oral dose of Δ8-THCV in MCT oil (LC-MS/MS, non-compartmental analysis)
Assay type: in vivo, human
Conditions: for concentration at 0.5 h / concentration at 1 h / concentration at 2 h / concentration at 4 h / concentration at 6 h / concentration at 8 h / AUC(0-t) / Cmax / MRT / Tmax: human; for concentration at 0.5 h / concentration at 1 h / concentration at 2 h / concentration at 4 h / concentration at 6 h / concentration at 8 h: oral; for AUC(0-t) / Cmax / MRT / Tmax: po; for MRT: read-out: MRT (mean residence time)
Procedure: The study was a two-phase, dose-ranging, placebo-controlled trial in 21 healthy participants to assess the safety, tolerability, PK, and PD of an oral formulation of Δ8-THCV. A detailed description of the study was published elsewhere. The study product was a medium-chain triglyceride (MCT) oil oral formulation of Δ8-THCV at a concentration of 50 mg/mL. […] MCT oil was used as placebo.
Twenty-one participants were enrolled in the clinical study and plasma samples from 15 participants were sent to our laboratory for pharmacokinetic evaluation. Of these, 3 participants were enrolled in Phase 1, an unblinded, placebo-controlled, single ascending dose design and 12 were enrolled in Phase 2, a double-blind, randomized, placebo-controlled, within-participant crossover design. At each study session, participants received one of the following oral doses: placebo, 12.5 mg, 25 mg, 50 mg, 100 mg, and 200 mg of the aforementioned Δ8-THCV formulation in MCT. Study visits were separated by a washout period of a minimum of one week and maximum of 28 days. Participants entered the research facility the night before the session and received the study product in the morning after a standardized high-fat, high-calorie breakfast. PK blood samples included in this analysis were collected prior to dosing and 0.5, 1, 2, 4, 6, and 8 h after dose. Immediately following collection into K2EDTA tubes, blood samples were placed on wet ice, centrifuged, and plasma was immediately frozen at −80 °C until shipment to the bioanalytical laboratory (iC42 Clinical Research and Development, University of Colorado, Aurora, CO, USA) on dry ice.
Plasma samples were analyzed using a validated high-performance liquid chromatography–tandem mass spectrometry (LC-MS/MS) assay. The assay included Δ8-THCV and its main metabolites 11-OH-Δ8-THCV and Δ8-THCV-COOH, Δ9-THCV and its main metabolite Δ9-THCV-COOH, and Δ9-THC and Δ8-THC as well as their main metabolites (Figure 3). The complete list of analyzed compounds and a summary of the key performance parameters of the assay are presented in Appendix A and Table A1 and Table A2. […] For the PK analysis, concentrations below the lower limit of quantification were set to 0 ng/mL. PK parameters were calculated using non-compartmental analysis (Phoenix WinNonlin version 8.4., Certara, Princeton, NJ, USA). Statistical analysis was carried out using GraphPad Prism (version 10, Boston, MA, USA).

[1] = plasma, 100 mg, 100 mg Δ8-THCV dose, Median (IQ Range)
[2] = plasma, 100 mg, 100 mg Δ8-THCV dose, Mean (SD, %CV)
[3] = plasma, 200 mg, 200 mg Δ8-THCV dose, Mean (SD, %CV)
[4] = plasma, 200 mg, 200 mg Δ8-THCV dose, Median (IQ Range)
[5] = plasma, 12.5 mg, 12.5 mg single oral Δ8-THCV in MCT oil, Mean (±SD)
[6] = plasma, 12.5 mg, 12.5 mg single oral Δ8-THCV in MCT oil, Median (Range)
[7] = plasma, 25 mg, 25 mg single oral Δ8-THCV in MCT oil, Mean (±SD)
[8] = plasma, 25 mg, 25 mg single oral Δ8-THCV in MCT oil, Median (Range)
[9] = plasma, 50 mg, 50 mg single oral Δ8-THCV in MCT oil, Mean (±SD)
[10] = plasma, 50 mg, 50 mg single oral Δ8-THCV in MCT oil, Median (Range)
[11] = plasma, 100 mg, 100 mg single oral Δ8-THCV in MCT oil, Mean (±SD)
[12] = plasma, 100 mg, 100 mg single oral Δ8-THCV in MCT oil, Median (Range)
[13] = plasma, 200 mg, 200 mg single oral Δ8-THCV in MCT oil, Mean (±SD)
[14] = plasma, 200 mg, 200 mg single oral Δ8-THCV in MCT oil, Median (Range)

CCCc1cc(O)c2c(c1)OC(C)(C)[C@@H]1CC=C(C(=O)O)C[C@@H]21 [Δ8-THCV-COOH, 11-nor-9-carboxy-Δ8-THCV]
concentration at 0.5 h [1]: 1.7 ng/mL
concentration at 1 h [2]: 202 ng/mL
concentration at 1 h [1]: 79.5 ng/mL
concentration at 2 h [2]: 306 ng/mL
concentration at 2 h [1]: 275 ng/mL
concentration at 4 h [2]: 556 ng/mL
concentration at 4 h [1]: 547 ng/mL
concentration at 6 h [2]: 512 ng/mL
concentration at 6 h [1]: 497 ng/mL
concentration at 8 h [2]: 319 ng/mL
concentration at 8 h [1]: 304 ng/mL
concentration at 0.5 h [3]: 5.6 ng/mL
concentration at 0.5 h [4]: 0 ng/mL
concentration at 1 h [3]: 158 ng/mL
concentration at 1 h [4]: 108 ng/mL
concentration at 2 h [3]: 653 ng/mL
concentration at 2 h [4]: 319 ng/mL
concentration at 4 h [3]: 1300 ng/mL
concentration at 4 h [4]: 1110 ng/mL
concentration at 6 h [3]: 1170 ng/mL
concentration at 6 h [4]: 1020 ng/mL
concentration at 8 h [3]: 917 ng/mL
concentration at 8 h [4]: 855 ng/mL
AUC(0-t) [5]: 398 ng·h/mL
Cmax [5]: 99 ng/mL
AUC(0-t) [6]: 331 ng·h/mL
Cmax [6]: 101 ng/mL
MRT (plasma, 12.5 mg, 12.5 mg single oral Δ8-THCV in MCT oil, plasma, Mean (±SD)): 4.9 h
Tmax (plasma, 12.5 mg, 12.5 mg single oral Δ8-THCV in MCT oil, plasma, Mean (±SD), read-out: tmax): 4.9 h
MRT (plasma, 12.5 mg, 12.5 mg single oral Δ8-THCV in MCT oil, plasma, Median (Range)): 4.9 h
Tmax (plasma, 12.5 mg, 12.5 mg single oral Δ8-THCV in MCT oil, plasma, Median (Range), read-out: tmax): 4 h
AUC(0-t) [7]: 642 ng·h/mL
Cmax [7]: 151 ng/mL
AUC(0-t) [8]: 574 ng·h/mL
Cmax [8]: 116 ng/mL
MRT (plasma, 25 mg, 25 mg single oral Δ8-THCV in MCT oil, plasma, Mean (±SD)): 4.8 h
Tmax (plasma, 25 mg, 25 mg single oral Δ8-THCV in MCT oil, plasma, Mean (±SD), read-out: tmax): 4.6 h
MRT (plasma, 25 mg, 25 mg single oral Δ8-THCV in MCT oil, plasma, Median (Range)): 4.6 h
Tmax (plasma, 25 mg, 25 mg single oral Δ8-THCV in MCT oil, plasma, Median (Range), read-out: tmax): 4 h
AUC(0-t) [9]: 1210 ng·h/mL
Cmax [9]: 324 ng/mL
AUC(0-t) [10]: 1090 ng·h/mL
Cmax [10]: 275 ng/mL
MRT (plasma, 50 mg, 50 mg single oral Δ8-THCV in MCT oil, plasma, Mean (±SD)): 5.3 h
Tmax (plasma, 50 mg, 50 mg single oral Δ8-THCV in MCT oil, plasma, Mean (±SD), read-out: tmax): 5.3 h
MRT (plasma, 50 mg, 50 mg single oral Δ8-THCV in MCT oil, plasma, Median (Range)): 5.3 h
Tmax (plasma, 50 mg, 50 mg single oral Δ8-THCV in MCT oil, plasma, Median (Range), read-out: tmax): 6 h
AUC(0-t) [11]: 3070 ng·h/mL
Cmax [11]: 756 ng/mL
AUC(0-t) [12]: 3130 ng·h/mL
Cmax [12]: 699 ng/mL
MRT (plasma, 100 mg, 100 mg single oral Δ8-THCV in MCT oil, plasma, Mean (±SD)): 4.8 h
Tmax (plasma, 100 mg, 100 mg single oral Δ8-THCV in MCT oil, plasma, Mean (±SD), read-out: tmax): 4.7 h
MRT (plasma, 100 mg, 100 mg single oral Δ8-THCV in MCT oil, plasma, Median (Range)): 4.6 h
Tmax (plasma, 100 mg, 100 mg single oral Δ8-THCV in MCT oil, plasma, Median (Range), read-out: tmax): 4 h
AUC(0-t) [13]: 6960 ng·h/mL
Cmax [13]: 1740 ng/mL
AUC(0-t) [14]: 6000 ng·h/mL
Cmax [14]: 1900 ng/mL
MRT (plasma, 200 mg, 200 mg single oral Δ8-THCV in MCT oil, plasma, Mean (±SD)): 5.1 h
Tmax (plasma, 200 mg, 200 mg single oral Δ8-THCV in MCT oil, plasma, Mean (±SD), read-out: tmax): 5.3 h
MRT (plasma, 200 mg, 200 mg single oral Δ8-THCV in MCT oil, plasma, Median (Range)): 5.1 h
Tmax (plasma, 200 mg, 200 mg single oral Δ8-THCV in MCT oil, plasma, Median (Range), read-out: tmax): 6 h
Tmax (plasma, across oral Δ8-THCV doses 12.5-200 mg, plasma, read-out: median time-to-maximum concentration (tmax), range across doses): 4.6 to 5.3 h
number of positive plasma samples (of 504 plasma samples from 15 participants after oral Δ8-THCV): 381
concentration in representative plasma sample (one subject after oral Δ8-THCV in MCT oil, Figure A1): 1026 ng/mL
median systemic exposure (plasma AUClast) relative to parent compound (oral Δ8-THCV): 36 fold
plasma concentration relative to Δ8-THCV, on average at each timepoint (oral Δ8-THCV): 10 fold
increase of median AUClast every two-fold increase in the dose (oral Δ8-THCV 12.5-200 mg, plasma): 1.7- to 2.9 fold
